According to publication PMC3463587, “A Series of Beta-Carboline Derivatives Inhibit the Kinase Activity of PLKs” (PLoS ONE, 2012):

What was measured:
MG63 cells = test: MTT cell proliferation assay, MG63; type: cell-based; details: Homo sapiens, MG-63, 48 hr
Text: (§1) BI2536 was purchased from Selleck (Selleck, USA).

PC3 cells = test: MTT cell proliferation assay, PC3; type: cell-based; details: Homo sapiens, PC-3, 48 hr
Text: as §1

HeLa cells = test: MTT cell proliferation assay, HeLa; type: cell-based; details: Homo sapiens, 48 hr
Text: as §1

[1] = test system: four cancer cell lines (HepG2, MG63, HeLa and PC3); test: Growth inhibition of four cancer cell lines; type: cell-based, Human
Text: In order to find more efficient antitumor small molecules targeting PLK1, we synthesized additional 18 beta-carboline compounds and the structures of these compounds are shown in Figure 1. The growth inhibition of four cancer cell lines (HepG2, MG63, HeLa and PC3) by these compounds was examined. […] We selected DH281, DH285 and DH287 for further studies.

HepG2 cells = test: MTT cell proliferation assay, HepG2; type: cell-based; details: Homo sapiens, 48 hr
Text: as §1

wild-type yeast cells = test: Yeast growth inhibition (MIC), wild-type; details: 10 µg/ml, 25°C
Method: (§2) The Cdc5 kinase is the functional homologue of PLK1 in budding yeast and the incubation of cdc5-2 mutants at 37°C impairs the kinase activity and stops cell growth. […] We also compared the sensitivity of wild-type and cdc5-2 mutant cells to the selected compounds at different concentrations. […] The temperature sensitive cdc5-2 mutants and wild-type strains were used. […] After incubation at 25°C for 24 hr, the growth of the yeast cells was determined by measuring OD600.

[2] = test system: cdc5-2 mutant yeast cells; test: Yeast growth inhibition (MIC), cdc5-2 mutant; details: 10 µg/ml, 25°C
Method: as §2

## Cc1nccc2c3ccc(OCc4cccc(Cl)c4)cc3n(CCCc3ccccc3)c12 [DH278]
MG63 cells
  IC50: > 150 µM
PC3 cells
  IC50: 80.21 ± 0.31 µM
HeLa cells
  IC50: 63.14 ± 0.47 µM
[1]
  antitumor activity (growth inhibition): did not show obvious antitumor activity
HepG2 cells
  IC50: > 100 µM

## Fc1ccc(C[n+]2ccc3c4ccccc4n(Cc4cccc(Cl)c4)c3c2)cc1 [DH275]
MG63 cells
  IC50: 7.32 ± 0.22 µM
PC3 cells
  IC50: 6.36 ± 0.11 µM
HeLa cells
  IC50: 5.83 ± 0.03 µM
HepG2 cells
  IC50: 10.4 ± 0.37 µM

## CC[C@@H]1C(=O)N(C)c2cnc(Nc3ccc(C(=O)NC4CCN(C)CC4)cc3OC)nc2N1C1CCCC1 [BI2536, reference compound]
wild-type yeast cells
  growth of wild-type cells: unaffected
[2]
  growth inhibition of cdc5-2 mutant cells: complete growth inhibition

## Clc1cccc(C[n+]2ccc3c4ccccc4n(CCCc4ccccc4)c3c2)c1 [DH273]
MG63 cells
  IC50: 4.21 ± 0.45 µM
PC3 cells
  IC50: 3.86 ± 0.12 µM
HeLa cells
  IC50: 3.77 ± 0.25 µM
HepG2 cells
  IC50: 5.08 ± 0.38 µM

## Fc1ccc(Cn2c3ccccc3c3cc[n+](Cc4ccccc4)c(Cc4ccccc4)c32)cc1 [DH271]
MG63 cells
  IC50: 5.97 ± 0.06 µM
PC3 cells
  IC50: 8.38 ± 0.24 µM
HeLa cells
  IC50: 3.86 ± 0.44 µM
HepG2 cells
  IC50: 4.01 ± 0.1 µM

## Cc1c2c(cc[n+]1Cc1ccccc1)c1ccc(OCc3cccc(Cl)c3)cc1n2CCCc1ccccc1 [DH280]
MG63 cells
  IC50: 1.86 ± 0.33 µM
PC3 cells
  IC50: 2.34 ± 0.06 µM
HeLa cells
  IC50: 0.99 ± 0.14 µM
[1]
  antitumor activity (growth inhibition): very strong growth inhibition
HepG2 cells
  IC50: 2.59 ± 0.16 µM

## COc1ccc2c3ccnc(C)c3n(Cc3cccc(Cl)c3)c2c1 [DH145]
MG63 cells
  IC50: 73.12 ± 0.31 µM
PC3 cells
  IC50: 75.39 ± 0.16 µM
HeLa cells
  IC50: 40.5 ± 0.14 µM
[1]
  antitumor activity (growth inhibition): did not show obvious antitumor activity
HepG2 cells
  IC50: 68.45 ± 0.02 µM

## Cc1nccc2c3ccc(OCc4ccccc4)cc3n(Cc3ccccc3)c12 [DH288]
MG63 cells
  IC50: > 100 µM
PC3 cells
  IC50: > 100 µM
HeLa cells
  IC50: > 100 µM
[1]
  antitumor activity (growth inhibition): did not show obvious antitumor activity
HepG2 cells
  IC50: > 100 µM

## CCCCn1c2ccccc2c2cc(C(=O)NCCO)nc(C)c21 [DH286]
MG63 cells
  IC50: 46.09 ± 0.37 µM
PC3 cells
  IC50: 72.96 ± 0.53 µM
HeLa cells
  IC50: 65.81 ± 0.23 µM
[1]
  antitumor activity (growth inhibition): did not show obvious antitumor activity
HepG2 cells
  IC50: > 150 µM

## Clc1cccc(Cn2c3ccccc3c3cc[n+](Cc4ccccc4)cc32)c1 [DH277]
MG63 cells
  IC50: 20.4 ± 0.16 µM
PC3 cells
  IC50: 10.8 ± 0.21 µM
HeLa cells
  IC50: 8.48 ± 0.23 µM
HepG2 cells
  IC50: 18.8 ± 0.29 µM

## Clc1cccc(Cn2c3ccccc3c3cc[n+](Cc4cccc(Cl)c4)cc32)c1 [DH276]
MG63 cells
  IC50: 7.3 ± 0.06 µM
PC3 cells
  IC50: 6.65 ± 0.4 µM
HeLa cells
  IC50: 6.04 ± 0.17 µM
HepG2 cells
  IC50: 11.2 ± 0.22 µM

## c1ccc(CCCn2c3ccccc3c3cc[n+](Cc4ccccc4)cc32)cc1 [DH272]
MG63 cells
  IC50: 12.8 ± 0.28 µM
PC3 cells
  IC50: 22.1 ± 0.43 µM
HeLa cells
  IC50: 8.16 ± 0.37 µM
HepG2 cells
  IC50: 12.47 ± 0.12 µM

## Cc1nccc2c3ccc(OCc4ccc(F)cc4)cc3n(CCCc3ccccc3)c12 [DH279]
MG63 cells
  IC50: > 100 µM
PC3 cells
  IC50: > 100 µM
HeLa cells
  IC50: > 100 µM
[1]
  antitumor activity (growth inhibition): did not show obvious antitumor activity
HepG2 cells
  IC50: > 100 µM

## Fc1ccc(C[n+]2ccc3c4ccccc4n(CCCc4ccccc4)c3c2)cc1 [DH274]
MG63 cells
  IC50: 6.38 ± 0.19 µM
PC3 cells
  IC50: 6.07 ± 0.27 µM
HeLa cells
  IC50: 5.73 ± 0.18 µM
HepG2 cells
  IC50: 7.37 ± 0.26 µM
